# US20170035708A1, “USE OF N-(4-TERT-BUTYLBENZYL)-3-CHLORO-N-[2-(4-CHLORO-3-ETHYL-PHENYL)-ETHYL]-2-FLUORO-5-TRIFLUOROMETHYL-BENZAMIDE FOR THE TREATMENT OF EYE DISEASES” (Hoffmann-La Roche Inc., priority 2013, published 2017)
# Columns and labels:
# scavenger receptor SRB1 = assay: Cholesterol efflux from cells; format: cell-based; conditions: via scavenger receptor SRB1
# Text: (§1) N-(4-tert-Butyl-benzyl)-3-chloro-N-[2-(4-chloro-3-ethyl-phenyl)-ethyl]-2-fluoro-5-trifluoromethyl-benz-amide is a potent inhibitor of cholesteryl ester transfer protein (CETP), which was originally developed for the treatment of dyslipidemia and prevention of cardiovascular events. The clinical development was discontinued in 2009 due to strategic portfolio decision; the discontinuation was not due to the safety profile of the product. […] Liquid-filled hard capsules in the dose strength of 60 mg have been developed.
# [1] = test system: Human umbilical vein endothelial cells (HUVEC); assay: alamarBlue viability assay in HUVECs; format: cell-based; conditions: 72 h
# Protocol: Human umbilical vein endothelial cells (HUVEC), the growth medium EGM and the basal medium EBM was obtained from Lonza. Additional FCS for the starving medium was used form Invitrogen.
# The viability assay with alamarBlue® from Invitrogen was done in 96 well gelatin coated plates from BD.
# The tested compounds were dissolved in DMSO at a stock concentration of 10 mM.
# VEGF-A165 was obtained from R&D Systems® and has been dissolved at a stock concentration of 100 ug/ml in PBS.
# HUVECs cells were maintained in Endothial growth medium (EGM) until Passage 5. For the viability assay HUVECs have been seeded in EBM with 0.5% FCS on gelatin coated 96 well plates at a cell density of 11.000 cells/well. Outer wells were left free and have been filled with medium afterwards. Cells were incubated overnight in a cell culture incubator at 37° C. with 5% CO2. Compounds and VEGF have been diluted in EBM/0.5% FCS to a 20× working concentration. 5 ul of the 20× pre-dilution have been added to the cells. HUVECs which have to be intended to grow under hypoxia conditions have been transferred to a cell culture incubator with 1% O2, 5% CO2 and 37° C. HUVECs grown under normoxia conditions were incubated in a normal cell culture incubator. After 72 h, 11 ul of alamarBlue® have been added to each well of the cells subsequently incubated for 4 h in the cell culture incubator. The absorbance has been detected at 570 nm with a reference wavelength of 600 nm.
# [2] = Physicochemical properties (solubility, stability, lipophilicity)
# Text: as §1
# (§2) The pharmacokinetic (PK) properties of N-(4-tert-Butyl-benzyl)-3-chloro-N-[2-(4-chloro-3-ethyl-phenyl)-ethyl]-2-fluoro-5-trifluoromethyl-benz-amide were assessed in the rat and cynomolgus monkey. […] The very high protein binding, in combination with moderate membrane permeability, is the likely cause for the low volume of distribution observed in vivo.
# [3] = Pharmacokinetic properties and excretion in the rat; format: in vivo
# Protocol: as §2
# In the rat and cynomolgus monkey, the major excretion route was the bile and feces, independent of the route of administration (approximately 92% of administered dose eliminated). Less than 1% of the dose was eliminated renally.
smiles,measurement,setting,value
"CCc1cc(CCN(Cc2ccc(C(C)(C)C)cc2)C(=O)c2cc(C(F)(F)F)cc(Cl)c2F)ccc1Cl [Compound 1, N-(4-tert-Butyl-benzyl)-3-chloro-N-[2-(4-chloro-3-ethyl-phenyl)-ethyl]-2-fluoro-5-trifluoromethyl-benzamide]",cholesterol efflux from cells,scavenger receptor SRB1,efflux cholesterol from cells via scavenger receptor SRB1
same,alamarBlue assay OD 570 nm-600 nm,"[1]; 4.1 nM, hypoxia",−0.0059
same,alamarBlue assay OD 570 nm-600 nm,"[1]; 4.1 nM, normoxia",0.0073
same,alamarBlue assay OD 570 nm-600 nm,"[1]; 10.2 nM, hypoxia",0.0152
same,alamarBlue assay OD 570 nm-600 nm,"[1]; 10.2 nM, normoxia",0.0075
same,alamarBlue assay OD 570 nm-600 nm,"[1]; 25.6 nM, hypoxia",0.0144
same,alamarBlue assay OD 570 nm-600 nm,"[1]; 25.6 nM, normoxia",0.0056
same,alamarBlue assay OD 570 nm-600 nm,"[1]; 64 nM, hypoxia",0.0118
same,alamarBlue assay OD 570 nm-600 nm,"[1]; 64 nM, normoxia",0.0062
same,alamarBlue assay OD 570 nm-600 nm,"[1]; 160 nM, hypoxia",0.0233
same,alamarBlue assay OD 570 nm-600 nm,"[1]; 160 nM, normoxia",0.0127
same,alamarBlue assay OD 570 nm-600 nm,"[1]; 400 nM, hypoxia",0.0326
same,alamarBlue assay OD 570 nm-600 nm,"[1]; 400 nM, normoxia",0.0223
same,alamarBlue assay OD 570 nm-600 nm,"[1]; 1000 nM, hypoxia",0.0967
same,alamarBlue assay OD 570 nm-600 nm,"[1]; 1000 nM, normoxia",0.0600
same,alamarBlue assay OD 570 nm-600 nm,"[1]; 2500 nM, hypoxia",0.1488
same,alamarBlue assay OD 570 nm-600 nm,"[1]; 2500 nM, normoxia",0.1512
same,effect on viability of HUVECs,[1]; hypoxia,induced a strong cell survival
same,effect on viability of HUVECs,[1]; normoxia,positive effect of viability
same,lipophilicity,[2],highly lipophilic
same,solubility in aqueous media,[2]; aqueous media,practically insoluble
same,dissolution rate,[2]; as cause of limited absorption,low
same,solubility,[2]; as cause of limited absorption,low
same,solubility in common organic solvents,[2]; common organic solvents,soluble
same,stability of the powder,[2]; white to off-white powder,stable
same,absolute oral bioavailability,[3],relatively low
same,dose eliminated renally,[3],Less than 1%
same,gastrointestinal absorption,[3],limited
same,terminal half-life,[3],medium to long
same,total systemic clearance,[3],low
same,volume of distribution,[3],low
same,plasma protein binding,[3]; across species,very high
same,administered dose eliminated via bile and feces,[3]; independent of the route of administration,approximately 92%
